Source: US10570155B2, “Imidazooxazole derivative having antitumor effect, and pharmaceutical composition including same” (KOREA INSTITUTE OF SCIENCE AND TECHNOLOGY, priority 2016, dated 2020)

Legend:
B-RAF = B-RAF (Homo sapiens (Human), UniProt P15056); experiment: Protein kinase enzymatic activity (Reaction Biology kinase hotspot, 33P-ATP); type: biochemical; details: read-out: Inhibitory effect against kinase activity, B-RAF (IC50)
Method: (§1) Reaction biology kinase hotspot service (http://www.reactionbiology.com) was used to measure IC50. In a final reaction volume of 25 μL, kinase (5 mU to 10 mU) was incubated with 25 mM Tris (pH 7.5), 0.02 mM EGTA, 0.66 mg/ml of myelin basic protein, 10 mM magnesium acetate, and [^33P-ATP] (specific activity of about 500 CPM/pmol, concentration as required). The reaction was initiated by addition of Mg-ATP mix. After incubation for 40 min at room temperature, the reaction was stopped by addition of 5 μl of a 3% phosphoric acid solution. 10 μL of the reaction was then spotted onto a P30 filtermat and washed three times for 5 minutes in 75 mM phosphoric acid and once in methanol prior to drying and scintillation counting.

V600E-B-RAF = V600E-B-RAF (Homo sapiens (Human), UniProt P15056, V600E); experiment: as above; type: biochemical; details: read-out: Inhibitory effect against kinase activity, V600E-B-RAF (IC50)
Method: as §1

C-RAF = C-RAF (Homo sapiens (Human), UniProt P04049, Y340D/Y341D); experiment: as above; type: biochemical; details: read-out: Inhibitory effect against kinase activity, C-RAF (IC50)
Method: as §1

A375 = experiment: NCI cancer cell line panel screening (SRB), melanoma cell line A375; type: cell-based; details: Homo sapiens, A-375, read-out: IC50 against melanoma cell line in vitro
Method: (§2) According to the standard protocol (http://dtp.nci.nih.gov/dtpstandard/dwindex/index.isp) of the US National Cancer Institute (NCI) (www.dtp.nci.nih.gov), screening of a cancer cell line panel was performed. Briefly, human cell lines were allowed to grow in an RPMI 1640 medium containing 5% FBS and 2 mM L-glutamine. For a general screening experiment, cells were inoculated in 96-well microtiter plates in 100 μl at a plating density ranging from 5000 cells/well to 40,000 cells/well depending on the doubling time of individual cell lines. After cell inoculation, the microtiter plates were incubated at 37° C., 5% CO2, 95% air, and 100% relative humidity for 24 hours prior to addition of test compounds. 24 hours later, two plates of each cell line were fixed in situ with trichloroacetic acid (TCA) to measure the cell population for each cell line at the time of test compound addition (Tz). Test compounds were solubilized in dimethyl sulfoxide at 400-fold the intended final maximum test concentration, and stored frozen prior to use. At the time of compound addition, an aliquot of frozen concentrate was thawed and diluted to twice the intended final maximum test concentration with a complete medium containing 50 μg/ml of gentamicin. Additional four concentration of 10-fold or ½ log serial dilutions were made to provide a total of five compound concentrations plus control. Aliquots of 100 μl of these different compound dilutions were added to appropriate microtiter wells already containing 100 μl of medium, resulting in the required final compound concentrations.
(§3) Following compound addition, the plates were incubated for additional 48 hours at 37° C., 5% CO2, 95% air, and 100% relative humidity. For adherent cells, the assay was terminated by the addition of cold TCA. Cells were fixed in situ by the gentle addition of 50 μl of cold 50% (w/v) TCA (final concentration, 10% TAC) and incubated at 4° C. for 60 minutes. The supernatant was discarded, and the plates were washed five times with tap water and air-dried. A sulforhodamine B (SRB) solution (100 μl) at 0.4% (w/v) in 1% acetic acid was added to each well, and plates were incubated at room temperature for 10 minutes. After staining, unbound dye was removed by washing five times with 1% acetic acid and the plates were air-dried. Bound stain was subsequently solubilized with 10 mM Trizma base, and the absorbance was read on an automated plate reader at a wavelength of 515 nm. For suspension cells, the methodology was the same except that the assay was terminated by fixing settled cells at the bottom of the wells by gently adding 50 μl of 80% TCA (final concentration, 16% TCA). Using the seven absorbance measurements [time zero (Tz), control growth (C), and test growth rate in the presence of compound at the five concentration levels (Ti)], the growth percentage was calculated at each of the compound concentration levels. Growth inhibition percentage was calculated as follows: [(Ti−Tz)/(C−Tz)]×100 for concentrations for which Ti>/=Tz [(Ti−Tz)/Tz]×100 for concentrations for which Ti<Tz.

SK-MEL-2 = experiment: NCI cancer cell line panel screening (SRB), melanoma cell line SK-MEL-2; type: cell-based, human; details: Homo sapiens, read-out: IC50 against melanoma cell line in vitro
Method: as §2, with “Briefly, human cell lines were allowed to grow in an RPMI 1640 medium containing 5% FBS and 2 mM L-glutamine.” left out
as §3, with “Bound stain was subsequently solubilized with 10 mM Trizma base, and the absorbance was read on an automated plate reader at a wavelength of 515 nm.” left out

MDA-MB-435 = experiment: NCI cancer cell line panel screening (SRB), melanoma cell line MDA-MB-435; type: cell-based; details: Homo sapiens, read-out: IC50 against melanoma cell line in vitro
Method: as §2, §3

SK-MEL-5 = experiment: NCI cancer cell line panel screening (SRB), melanoma cell line SK-MEL-5; type: cell-based, human; details: Homo sapiens, read-out: IC50 against melanoma cell line in vitro
Method: as §2, with “Briefly, human cell lines were allowed to grow in an RPMI 1640 medium containing 5% FBS and 2 mM L-glutamine.” left out
as §3, with “Bound stain was subsequently solubilized with 10 mM Trizma base, and the absorbance was read on an automated plate reader at a wavelength of 515 nm.” left out

LOX IMVI = experiment: NCI cancer cell line panel screening (SRB), melanoma cell line LOX IMVI; type: cell-based, human; details: Homo sapiens, read-out: IC50 against melanoma cell line in vitro
Method: as §2, with “Briefly, human cell lines were allowed to grow in an RPMI 1640 medium containing 5% FBS and 2 mM L-glutamine.” left out
as §3, with “Bound stain was subsequently solubilized with 10 mM Trizma base, and the absorbance was read on an automated plate reader at a wavelength of 515 nm.” left out

UACC-62 = experiment: NCI cancer cell line panel screening (SRB), melanoma cell line UACC-62; type: cell-based; details: Homo sapiens, read-out: IC50 against melanoma cell line in vitro
Method: as §2, §3

SK-MEL-28 = experiment: NCI cancer cell line panel screening (SRB), melanoma cell line SK-MEL-28; type: cell-based, human; details: Homo sapiens, read-out: IC50 against melanoma cell line in vitro
Method: as §2, with “Briefly, human cell lines were allowed to grow in an RPMI 1640 medium containing 5% FBS and 2 mM L-glutamine.” left out
as §3, with “Bound stain was subsequently solubilized with 10 mM Trizma base, and the absorbance was read on an automated plate reader at a wavelength of 515 nm.” left out

M14 = experiment: NCI cancer cell line panel screening (SRB), melanoma cell line M14; type: cell-based; details: Homo sapiens, read-out: IC50 against melanoma cell line in vitro
Method: as §2, §3

Sequence of B-RAF (P15056 whole entry): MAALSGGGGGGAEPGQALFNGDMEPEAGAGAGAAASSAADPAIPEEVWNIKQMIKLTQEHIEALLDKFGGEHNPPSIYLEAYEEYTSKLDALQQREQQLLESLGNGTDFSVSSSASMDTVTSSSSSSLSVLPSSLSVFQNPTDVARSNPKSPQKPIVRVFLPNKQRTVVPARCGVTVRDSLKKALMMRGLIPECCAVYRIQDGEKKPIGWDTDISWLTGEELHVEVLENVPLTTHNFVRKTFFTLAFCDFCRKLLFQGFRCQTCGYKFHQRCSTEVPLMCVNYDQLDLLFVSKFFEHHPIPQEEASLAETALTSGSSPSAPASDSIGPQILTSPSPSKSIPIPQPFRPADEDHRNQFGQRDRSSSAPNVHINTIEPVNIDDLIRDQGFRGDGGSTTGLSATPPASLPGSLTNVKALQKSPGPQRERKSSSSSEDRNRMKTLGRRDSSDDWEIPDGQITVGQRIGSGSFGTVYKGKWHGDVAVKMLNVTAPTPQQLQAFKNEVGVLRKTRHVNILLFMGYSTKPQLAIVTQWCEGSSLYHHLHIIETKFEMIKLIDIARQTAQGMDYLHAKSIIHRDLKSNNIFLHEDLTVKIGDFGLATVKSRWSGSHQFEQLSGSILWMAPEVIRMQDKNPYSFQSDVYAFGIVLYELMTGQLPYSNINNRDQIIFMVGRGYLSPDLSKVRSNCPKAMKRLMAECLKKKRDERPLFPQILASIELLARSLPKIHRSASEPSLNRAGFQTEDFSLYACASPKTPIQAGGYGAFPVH
Sequence of V600E-B-RAF (P15056 whole entry V600E): as the sequence (P15056 whole entry) above, with V600E counted along it
Sequence of C-RAF (P04049 306-648 Y340D/Y341D limits assumed): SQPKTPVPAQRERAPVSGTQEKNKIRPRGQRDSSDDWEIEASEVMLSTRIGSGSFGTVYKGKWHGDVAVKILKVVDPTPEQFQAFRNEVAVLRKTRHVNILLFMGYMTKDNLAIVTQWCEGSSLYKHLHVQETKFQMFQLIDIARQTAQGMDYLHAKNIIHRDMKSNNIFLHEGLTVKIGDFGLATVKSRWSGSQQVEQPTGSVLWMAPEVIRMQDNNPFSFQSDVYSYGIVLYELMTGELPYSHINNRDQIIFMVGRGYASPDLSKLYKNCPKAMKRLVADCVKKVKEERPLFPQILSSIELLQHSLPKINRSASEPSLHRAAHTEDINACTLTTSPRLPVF

| IC50 (B-RAF) [nM] | IC50 (V600E-B-RAF) [nM] | IC50 (C-RAF) [nM] | SMILES | IC50 (A375) [nM] | IC50 (SK-MEL-2) [nM] | IC50 (MDA-MB-435) [nM] | IC50 (SK-MEL-5) [nM] | IC50 (LOX IMVI) [nM] | IC50 (UACC-62) [nM] | IC50 (SK-MEL-28) [nM] | IC50 (M14) [nM] |
| --- | --- | --- | --- | --- | --- | --- | --- | --- | --- | --- | --- |
| 3.23 | 1.85 | 2.95 | CN1CCN(CCNc2nccc(-c3c(-c4cccc(O)c4)nc4occn34)n2)S1(=O)=O [1II, 2-(2-((4-(6-(3-Hydroxylphenyl)imidazo[2,1-b]oxazol-5-yl)pyrimidin-2-yl)amino)ethyl)-5-methyl-1,2,5-thiadiazolidine 1,1-dioxide] | 60 | – | – | – | – | – | – | – |
| 4.19 | 0.98 | 7.83 | O=S(=O)(NCCCNc1nccc(-c2c(-c3cccc(O)c3)nc3sccn23)n1)c1ccc(F)cc1 [31III, 4-fluoro-N-(3-((4-(6-(3-hydroxylphenyl)imidazo[2,1-b]thiazol-5-yl)pyrimidin-2-yl)amino)propyl)benzenesulfonamide] | 300 | 1100 | 240 | 1200 | 560 | 20 | 50 | 60 |
